Earlier results as cited in patent US7737133B2, “Formulations and methods of treating inflammatory bowel disease” (AGI Therapeutics Ltd., priority 2003, dated 2010).

Key:
[1] = reportedly; Ginsberg et al.
[2] = compared with 5-ASA

systemic absorption of 5-ASA or its acetylated form (after cleavage of olsalazine in the colon) | absorbed intact from the gut (olsalazine, conventional powder capsule) [%] | Structure (SMILES) | nephrotoxicity [1] | aqueous stability [2]
approximately 20% | 2.4 | O=C(O)c1cc(N=Nc2ccc(O)c(C(=O)O)c2)ccc1O [olsalazine, 5,5′-azo-bis salicylic acid] |  | 
 |  | Nc1ccc(C(=O)O)c(O)c1 [Example 4-ASA, 4-aminosalicylic acid] | absence of nephrotoxicity | higher aqueous stability
